Data set [1] relates to TA98. As to the kind of experiment: Mini-Ames assay, strain TA98. The format is cell-based. The conditions noted are these: Salmonella typhimurium. Here is the method: (§1) Mini Am es assay. To conduct the assay, top agar was melted with a microwave and maintained at a temper atur e ≥47 °C in a water bath. T he assay was performed using a heat block set to 45 °C ± 2 °C. 12 × 75 mm test tubes were prepared in duplicates. For each concentration, the following components were added sequentially to a test tube:
(§2) […] The mixture was vortexed and then dispensed into w ells using a dispo sable pipette. The plates wer e then incubated at 37±2 °C for approximately 48 to 72 hours.
(§3) BBbbbb BBBBbbbb BBBB = AAAAbbbbbbAAbb nnnnnnbbbbbb bboo bbbbAAbbbbbbbbnnbbbb oobbbb bbbb eeee dd bbbbbb AAbbbbnn gg AAAAbbbbbbAAbb nnnnnnbbbbbb bbBB bbbbAAbbbbbbbbnnbbbb BBbbbb DDDDDDDD nn bbAAbbbbaaAAbb AAbbbbnnaa The mutagenicity of the compound was determined by evaluating the number of revertant colonies in strains TA98 and TA100. A compound was […]
(§4) related and if the fold increase in revertants (F) was equal to or greater than 2 for […]
(§5) background lawn growth on the agar plates. A scoring system ranging from 0 to 4 […]
growth, respectively. A score of 4 signified full '100%' growth. […]
(§6) background lawn and required magnification for visualization. […]
In general terms: In the Ames test, an excess of revertant colonies over the control signals mutagenicity.

Data set [2] concerns the target P-gp (MDR1-MDCKII cells) (Homo sapiens, UniProt P08183). As to the kind of experiment: Bidirectional permeability in MDR1-MDCKII cells with and without GF120918. The conditions noted are these: for Rank Papp: MDR1-MDCKII permeability rank. Here is the method: (§7) MDR1-MDCKII cells were seeded onto […] (PET) in a 96-well insert system. Test and reference compounds were administered to the apical (A-to-B) and basolateral (B-to-A) sides of the cell monolayer. Permeation of the compounds in both directions was assessed, with and without a P-glycoprotein (P-gp) inhibitor (GF120918). […] After a 2.5-h incubation period, each compound’s permeability and efflux ratio were calculated as described in the SI. […]
(§8) Bidirectional permeability assessment in MDR1-MDCK cells. Test and reference compounds were quantified using LC -MS/MS ana lysis based on th e peak ar ea r atio of analyte to internal standard (IS). T he apparent permeability coefficient (Papp) in cm/s was computed using the equation: Pa pp = (dCr/d t ) × V r / ( A × C 0), where dCr/ d t […]
(§9) represents the cumulative concentration of the compound in the receiver chamber over time (µM/s), Vr is the solution volume in the receiver chamber (0.075 mL on the apical side, 0.25 mL on the basolateral side), A is the surface area for transport (0.0804 cm2 f or the monolayer ar ea), and C0 is the initial concentration in the donor chamber ( µM) .
(§10) The efflux ratio was determined using the equation Efflux Ratio = P a pp ( B:
(§11) A ) / Pa pp (A: B) . […]
(§12) Additionally, the percent of lucifer yellow in the basolateral well was calculated using the equation:
(§13) Lucif er yellow = VV bbbbbbbbbbbbbbbbbbbb ×RR FFFF bbbbbbbbbbbbbbbbbbbb ×100 VV bbaaaaaa bbbb ×RRRRRR bbaaaaaa bbbb+VV bbbbbbbbbbbbbbbbbbbb ×RRFFFF bbbbbbbbbbbbbbbbbbbb wher e RFUApical and RFUBasolateral demote the r elative f luor escence unit values of lucif er yellow in the apical and basolateral wells, respectively, and VApical and VBasolateral represent the volumes of apical and basolateral wells (0.075 mL and 0.25 mL, r espectively) . T he % Lucif er Yellow should be less than 2, indicating minimal leakage. […]

Data set [3] has as its target P-gp (MDR1) (Homo sapiens, UniProt P08183). Described as above. The conditions noted are these: dog; for Papp A→B at 2.5 h: MDCK-MDR1; for recovery at 2.5 h: MDCK-MDR1, Mean recovery % A to B, without GF120918. On the procedure: as §7, §8, §9, §10, §11, §12, §13
Data set [4] relates to HepG2 cells. As to the kind of experiment: Cell viability assay (CellTiter Glo). The conditions noted are these: Homo sapiens, 72 h, read-out: cell viability relative IC50. The class given is cell-based. Here is the method: Cell viability assay. To assess the cell viability, which indicates the toxicity of the novel compounds, a total of 3,000 HepG2 cells were seeded into a 384-well plate. The compounds were then dispensed onto the cell plate using a Tecan D300e digital dispenser. Following compound addition, 35 μL CellTiter Glo reagent was added to all wells of the assay plate, and the plate was mixed for 30 sec on an or bital shaker to lyse cells. Subsequently, the plate was incubated at room temperature for 10 minutes. The luminescence signal was measured using a 384-well plate reader (EnVision). The obtained data were analyzed using XL-fit software (ID Business Solutions Ltd., Software version: XL fit 5. 5. 0. 5). The percentage of inhibition was calculated using the […]
Inhibition (%) = (1-Sample / ZPE) ×100
Sample represents the test compound's luminesc e nce signal, and ZPE represents the luminescence signal f r om the zer o-percent enzyme control.
On the technique in general: Cellular ATP, detected with luciferase, serves as a proxy for viable cell number.

In data set [5] the target is T1, mouse CB1R (Mus musculus, UniProt P47746).
T1 construct: crude membranes from mouse brain; from tissue; host or cells: mouse brain cortex (without cerebellum) membranes, C57Bl/6Jhsd mice
As to the kind of experiment: Radioligand competition displacement binding, [3H]CP-55,940, mouse brain membranes. The note with it: [3H]CP-55,940 displacement, mouse brain membranes; read-out: CB1R mKi. Here is the method:
BNS compounds’ binding to CB1R and CB2R was assessed in competition displacement assays using [^3H]CP-55,940 as the radioligand and crude membranes from mouse brain or human cells overexpressing the CB1R or CB2R. All data were in triplicates with Ki values determined from three independent experiments. See SI for a detailed procedure.
Supplementary Experimental Methods
Brain membrane preparation for CB1R b i nd i ng . The mouse cortex, excluding the cerebellum, was dissected from 6-week-old C57Bl/6Jhsd mice (Harlan, Israel). The tissue was homogenized in 4 mL Buffer 1 (320 mM sucrose, 2 mM EDTA, 5 m M MgCl 2) using a glass-Teflon homogenizer and Hei-T ORQUE 200 (Heidolph; Cat# 17-012- 002- 25 -1) homogenizer set to 132 rpm. After homogenization, the mixture was centrifuged at 1,600 × g for 10 min at four °C, and the resulting supernatant was kept on ice. The pellet (P1) was discarded, and the remaining supernatant was subje cted to additional rounds of resuspension in 4 mL Buffer 1 followed by centrifugations, repeating this process three times. The pellets obtained from these centrifugations were discarded, and the three supernatant fractions were combined and subjected to higher-speed centrifugation at 39,000 × g for 15 min at f ou r °C. […] This resuspended pellet ( P 2 ) was incubated at 37 °C for 10 min and then centrifuged at 23, 000 × g for 10 min at 4°C.
After centrifugation, the pellet (P2) was resuspended in 5 mL Buffer 2 and further incubated at 30 °C for 40 min. Following this incubation, the suspension was centrifuged at 11,000 × g for 15 min at 4 °C. The pellet (P2) was resuspended in 2 mL Buffer 3 containing 50 mM TRIS HCl pH 7.4, 1 mM EDTA, and 3 mM MgCl 2. T h e protein concentration of the final suspension was determined using the BCA assay.
Subsequently, the suspension was diluted to a final concentration of 2 mg/mL in Buffer 3, aliquoted on ice, and stored at - 80 °C for further use.
CB1R and CB2R binding. Binding to the CB1R/CB2R was asse ss ed using competition displacement as says with [ 3H] CP -55,940 as the radioligand. Purified membranes from the mouse brain were utilized for CB1R assessment (as described above). Purified […]
membranes from cells overexpressing human CB2R ( Char les River CAT # A618) w e r e employed for CB2R evaluation.
For mouse CB1R binding assays, the novel compounds were dissolved in dimethyl sulfoxide (DMSO) to reach a final concentration of 10 mM. Each compound was then diluted in Buffer 3 (as described above) supplemented with 0.14% BSA, resulting in concentrations ranging from 10^-4 M to 10^-10 M. Triplicates of 100 µL of each concentration were dispensed into siliconized glass tubes. At the same time, 100 µL of Buffer 3 with 0.14% BSA was dispensed into three tubes as blanks. CB1R b r a i n membranes (20 µg) were added to each tube and diluted with 800 µL Buffer 3 with 0.14% BSA. Subsequently, 5 nM of [ 3H] CP -55,940 (100 µL) was added to each tube.
The tubes were sealed with parafilm and incubated with shaking (120 rpm) in a water bath at 30 °C for 1 hour. Following incubation, 2 mL of cold Buffer 4 (50 mM TRIS HCl pH 7.4, 1 mg/mL BSA) was added to each tube.
To harvest the content of each tube, a Brandel M-24R Vacuum Harvester was employed, with a wet WHATMAN GF/B filter paper (Fired) (one membrane for 12 tubes) placed in the harvester after being washed twice with Buffer 4. The filter membrane in the harvester absorbed the full content of each tube. Then, the filter membrane was wash ed six times with Buffer 4. Each filter -glass membrane tube wa s excised and transferred to a 20 mL glass tube co ntaining a 5 mL ULTIMA GOLD scintillation cocktail. […]
For orientation: In a radioligand displacement assay an active substance lowers the binding of a labelled ligand.

The test system of data set [6] is TA100. As to the kind of experiment: Mini-Ames assay, strain TA100. The class given is cell-based. On the procedure: as §1, §2, §3, §4, §5
complete cytotoxicity, while scores 1, 2, and 3 represented 25%, 50%, and 75% growth, respectively. A score of 4 signified full '100%' growth. The background […]
as §6

Where [7] appears, read: Salmonella typhimurium, 2 μg/well.

Results on seven molecules are retold here after PMC12067444, “Synthesis and Pharmacological Characterization of Novel Peripheral Cannabinoid-1 Receptor Blockers Based on a Tricyclic Scaffold” (Journal of Medicinal Chemistry, 2025).

Chain of P-gp (MDR1) (P08183 whole entry): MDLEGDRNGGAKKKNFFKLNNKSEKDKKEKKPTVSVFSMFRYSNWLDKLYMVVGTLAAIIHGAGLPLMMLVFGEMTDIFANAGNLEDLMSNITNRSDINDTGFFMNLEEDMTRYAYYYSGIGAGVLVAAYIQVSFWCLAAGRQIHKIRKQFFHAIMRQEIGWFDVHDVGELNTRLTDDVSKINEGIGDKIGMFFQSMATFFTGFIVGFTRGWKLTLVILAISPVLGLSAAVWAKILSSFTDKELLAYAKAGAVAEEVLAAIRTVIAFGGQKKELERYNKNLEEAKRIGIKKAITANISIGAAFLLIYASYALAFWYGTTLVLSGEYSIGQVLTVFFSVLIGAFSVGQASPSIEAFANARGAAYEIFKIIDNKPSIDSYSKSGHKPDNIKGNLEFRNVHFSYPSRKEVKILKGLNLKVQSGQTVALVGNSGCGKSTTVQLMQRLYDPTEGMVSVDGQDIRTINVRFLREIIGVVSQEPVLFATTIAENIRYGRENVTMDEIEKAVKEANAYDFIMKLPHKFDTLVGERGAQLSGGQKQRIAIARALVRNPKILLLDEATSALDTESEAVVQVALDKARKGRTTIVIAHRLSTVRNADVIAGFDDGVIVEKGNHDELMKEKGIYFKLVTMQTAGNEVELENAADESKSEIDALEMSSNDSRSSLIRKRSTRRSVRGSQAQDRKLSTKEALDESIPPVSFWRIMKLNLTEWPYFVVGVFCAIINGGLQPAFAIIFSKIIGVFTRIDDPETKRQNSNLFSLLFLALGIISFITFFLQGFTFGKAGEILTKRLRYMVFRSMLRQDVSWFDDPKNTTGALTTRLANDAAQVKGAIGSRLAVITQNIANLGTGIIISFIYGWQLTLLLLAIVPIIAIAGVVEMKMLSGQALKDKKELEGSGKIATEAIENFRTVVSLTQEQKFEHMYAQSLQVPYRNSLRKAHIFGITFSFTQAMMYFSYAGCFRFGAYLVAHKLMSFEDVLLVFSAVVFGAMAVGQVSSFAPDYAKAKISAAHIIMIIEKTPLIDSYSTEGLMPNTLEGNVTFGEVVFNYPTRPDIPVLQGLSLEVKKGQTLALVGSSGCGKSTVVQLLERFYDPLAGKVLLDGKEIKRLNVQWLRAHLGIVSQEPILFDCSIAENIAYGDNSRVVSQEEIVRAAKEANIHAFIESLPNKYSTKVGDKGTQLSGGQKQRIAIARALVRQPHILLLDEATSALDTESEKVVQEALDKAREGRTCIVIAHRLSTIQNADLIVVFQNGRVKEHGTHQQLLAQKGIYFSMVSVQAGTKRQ
Chain of P-gp (MDR1-MDCKII cells) (P08183 whole entry): as above
T1 sequence (P47746 whole entry): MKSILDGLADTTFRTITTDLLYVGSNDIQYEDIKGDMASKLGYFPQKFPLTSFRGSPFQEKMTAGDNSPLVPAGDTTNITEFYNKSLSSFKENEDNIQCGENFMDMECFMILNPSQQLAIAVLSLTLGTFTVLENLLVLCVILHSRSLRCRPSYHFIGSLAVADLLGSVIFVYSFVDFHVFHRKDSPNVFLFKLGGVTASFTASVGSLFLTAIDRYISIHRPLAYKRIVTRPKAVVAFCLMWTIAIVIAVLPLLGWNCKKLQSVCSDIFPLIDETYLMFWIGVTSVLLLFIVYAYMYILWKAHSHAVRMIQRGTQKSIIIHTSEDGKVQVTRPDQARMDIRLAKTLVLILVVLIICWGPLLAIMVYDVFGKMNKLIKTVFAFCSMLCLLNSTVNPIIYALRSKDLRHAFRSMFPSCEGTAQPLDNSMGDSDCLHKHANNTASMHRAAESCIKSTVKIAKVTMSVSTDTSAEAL

Take `O=[N+]([O-])c1ccc2c(c1)Cc1ccccc1-2` [2-nitrofluorene (2-NF), 2-nitrofluorene, reference compound]: in data set [1] (4 μg/well), the F value was found to be 14.00 and the “Number of revertants MEAN” value is listed as 102.67.
With `COCCc1ccc(OCC(O)CNC(C)C)cc1` (stereo not drawn) [Metoprolol, reference compound], in data set [2], the “Rank Papp” value is reported as “Hi gh”. Besides, in data set [3], the apparent permeability from apical to basolateral (Papp A→B) – broadly, how fast a substance crosses the layer from the apical side – at 2.5 h worked out at 28.7 ×10⁻⁶ cm/s and the recovery at 2.5 h is 107%.
As for `C[C@H]1O[C@@H](O[C@H]2[C@@H](O)C[C@H](O[C@H]3[C@@H](O)C[C@H](O[C@H]4CC[C@@]5(C)[C@H](CC[C@@H]6[C@@H]5C[C@@H](O)[C@]5(C)[C@@H](C7=CC(=O)OC7)CC[C@]65O)C4)O[C@@H]3C)O[C@@H]2C)C[C@H](O)[C@@H]1O` [Digoxin, reference compound], the P-gp substrate result in data set [2] (MDR1-MDCKII cells) was “Ye s”. Further, the “Rank Papp” value in data set [2] is “Low”. Further, in data set [2] (without GF120918), the “Mean Papp B to A” value is 10.88 10 -6 cm/s.
Turning to `CN[C@@H]1C[C@H]2O[C@@](C)([C@@H]1OC)n1c3ccccc3c3c4c(c5c6ccccc6n2c5c31)C(=O)NC4` [Staurosporine, reference compound], the IC50 (commonly the concentration that gives 50% inhibition) in data set [4] worked out at 60 nM.
Turning to `CC(C)(C)NCC(O)COc1cccc2c1CC(O)C(O)C2` (stereo not drawn) [Nadolol, reference compound], the “Rank Papp” value in data set [2] is given as “Low”. In data set [3], the Papp A→B at 2.5 h was 0.42 ×10⁻⁶ cm/s and the recovery at 2.5 h amounted to 102%.
Turning to `CNC(=O)NC1CCCOc2c1nn(-c1ccccc1Cl)c2-c1ccc(Cl)cc1` (stereo not drawn) [BNS813, 1-[2-(2-Chlorophenyl)-3-(4-chlorophenyl)-5,6,7,8-tetrahydrooxepino[3,2-c]pyrazol-8-yl]-3-methyl-urea], the Ki in data set [5] was determined as 1130 nM.
For the molecule `Nc1ccc2cc3ccccc3cc2c1` [2-aminoanthracene (2-AA), 2-aminoanthracene, reference compound], in data set [1] (2 μg/well), the F value was found to be 31.70 and the “Number of revertants MEAN” value was determined as 348.67. In data set [6], the solubility result is on record as “P0”. Further, in data set [6] (setting [7]), the F value was 8.00 and the “Number of revertants MEAN” value is reported as 317.33.
